PubChem BioAssay (NCI)
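Compound exposure: 48 hours, 5 concentrations, 96-well plates. Definition used: TGI = concentration required for complete inhibition of growth.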

Columns and labels:
Experiment in all cases: DTP human tumour cell line panel, 48 h
A549 NSCLC = system: A549 NSCLC
U251 CNS = system: U251 CNS
UO-31 renal = system: UO-31 renal
SN12C renal = system: SN12C renal
ACHN renal = system: ACHN renal
IGROV1 ovarian = system: IGROV1 ovarian
SK-MEL-5 melanoma = system: SK-MEL-5 melanoma
M14 melanoma = system: M14 melanoma
RPMI-8226 leukemia = system: RPMI-8226 leukemia
UACC-62 melanoma = system: UACC-62 melanoma
HCC-2998 colon = system: HCC-2998 colon
SR leukemia = system: SR leukemia
LOX IMVI melanoma = system: LOX IMVI melanoma
SF-295 CNS = system: SF-295 CNS
HCT-116 colon = system: HCT-116 colon
SNB-75 CNS = system: SNB-75 CNS
UACC-257 melanoma = system: UACC-257 melanoma
OVCAR-4 ovarian = system: OVCAR-4 ovarian
NCI-H522 lung = system: NCI-H522 lung
NCI-H460 lung = system: NCI-H460 lung
HOP-62 NSCLC = system: HOP-62 NSCLC
MDA-N = system: MDA-N
PC-3 prostate = system: PC-3 prostate
MALME-3M melanoma = system: MALME-3M melanoma
MCF7 breast = system: MCF7 breast
OVCAR-8 ovarian = system: OVCAR-8 ovarian
SK-OV-3 ovarian = system: SK-OV-3 ovarian
BT-549 breast = system: BT-549 breast
HS 578T breast = system: HS 578T breast
OVCAR-3 ovarian = system: OVCAR-3 ovarian
KM12 colon = system: KM12 colon
K-562 leukemia = system: K-562 leukemia
HOP-92 NSCLC = system: HOP-92 NSCLC
NCI/ADR-RES ovarian = system: NCI/ADR-RES ovarian
786-0 renal = system: 786-0 renal
COLO 205 colon = system: COLO 205 colon
SNB-19 CNS = system: SNB-19 CNS
HT29 colon = system: HT29 colon
TK-10 renal = system: TK-10 renal
DU-145 prostate = system: DU-145 prostate
MDA-MB-435 = system: MDA-MB-435
EKVX NSCLC = system: EKVX NSCLC
SK-MEL-2 melanoma = system: SK-MEL-2 melanoma
HCT-15 colon = system: HCT-15 colon
MOLT-4 leukemia = system: MOLT-4 leukemia
CAKI-1 renal = system: CAKI-1 renal
MDA-MB-231 breast = system: MDA-MB-231 breast
CCRF-CEM leukemia = system: CCRF-CEM leukemia
OVCAR-5 ovarian = system: OVCAR-5 ovarian
NCI-H23 lung = system: NCI-H23 lung
SF-268 CNS = system: SF-268 CNS
SW-620 colon = system: SW-620 colon
T-47D breast = system: T-47D breast
SF-539 CNS = system: SF-539 CNS
HL-60(TB) leukemia = system: HL-60(TB) leukemia
SK-MEL-28 melanoma = system: SK-MEL-28 melanoma
RXF 393 renal = system: RXF 393 renal
NCI-H226 lung = system: NCI-H226 lung

With `Nc1nc2ccc(NCc3ccc(C(=O)NC(CCC(=O)O)C(=O)O)cc3)cc2c(=O)[nH]1` (stereo unspecified) the TGI (A549 NSCLC) was > 100 µM, the TGI (U251 CNS) was > 100 µM and the TGI (UO-31 renal) was > 100 µM. The TGI (SN12C renal) was > 100 µM, the TGI (ACHN renal) was 39.9 µM and the TGI (IGROV1 ovarian) was > 100 µM. The TGI (SK-MEL-5 melanoma) was > 100 µM, the TGI (M14 melanoma) was 87.5 µM and the TGI (RPMI-8226 leukemia) was > 100 µM. For the same compound, the TGI (UACC-62 melanoma) was > 100 µM, the TGI (HCC-2998 colon) was > 100 µM and the TGI (SR leukemia) was > 100 µM. The TGI (LOX IMVI melanoma) was > 100 µM, the TGI (SF-295 CNS) was > 100 µM and the TGI (HCT-116 colon) was > 100 µM. For the same compound, the TGI (SNB-75 CNS) was > 100 µM, the TGI (UACC-257 melanoma) was > 100 µM and the TGI (OVCAR-4 ovarian) was > 100 µM. For the same compound, the TGI (NCI-H522 lung) was > 100 µM, the TGI (NCI-H460 lung) was > 100 µM and the TGI (HOP-62 NSCLC) was > 100 µM. The TGI (MDA-N) was > 100 µM, the TGI (PC-3 prostate) was > 100 µM and the TGI (MALME-3M melanoma) was > 100 µM. The TGI (MCF7 breast) was > 100 µM, the TGI (OVCAR-8 ovarian) was > 100 µM and the TGI (SK-OV-3 ovarian) was > 100 µM. The TGI (BT-549 breast) was > 100 µM, the TGI (HS 578T breast) was > 100 µM and the TGI (OVCAR-3 ovarian) was > 100 µM. The TGI (KM12 colon) was > 100 µM, the TGI (K-562 leukemia) was > 100 µM and the TGI (HOP-92 NSCLC) was > 100 µM. The TGI (NCI/ADR-RES ovarian) was > 100 µM, the TGI (786-0 renal) was > 100 µM and the TGI (COLO 205 colon) was > 100 µM. The TGI (SNB-19 CNS) was > 100 µM, the TGI (HT29 colon) was > 100 µM and the TGI (TK-10 renal) was > 100 µM. The TGI (DU-145 prostate) was > 100 µM, the TGI (MDA-MB-435) was > 100 µM and the TGI (EKVX NSCLC) was > 100 µM. The TGI (SK-MEL-2 melanoma) was > 100 µM, the TGI (HCT-15 colon) was > 100 µM and the TGI (MOLT-4 leukemia) was > 100 µM. For the same compound, the TGI (CAKI-1 renal) was > 100 µM, the TGI (MDA-MB-231 breast) was > 100 µM and the TGI (CCRF-CEM leukemia) was > 100 µM. The TGI (OVCAR-5 ovarian) was > 100 µM, the TGI (NCI-H23 lung) was > 100 µM and the TGI (SF-268 CNS) was > 100 µM. For the same compound, the TGI (SW-620 colon) was > 100 µM, the TGI (T-47D breast) was > 100 µM and the TGI (SF-539 CNS) was > 100 µM. The TGI (HL-60(TB) leukemia) was > 100 µM, the TGI (SK-MEL-28 melanoma) was > 100 µM and the TGI (RXF 393 renal) was > 100 µM. The TGI (NCI-H226 lung) was > 100 µM.
Work on `C[C@]12CC[C@H]3[C@@H](CCC4=C[C@@H](N5CCCC5)CC[C@@]43C)[C@@H]1C/C(=C\c1ccncc1)[C@@H]2O` yielded a TGI (A549 NSCLC) of 29.1 µM, a TGI (U251 CNS) of 28.5 µM and a TGI (UO-31 renal) of 18.4 µM. The TGI (SN12C renal) was 28.5 µM, the TGI (ACHN renal) was 40.6 µM and the TGI (IGROV1 ovarian) was 64.6 µM. It also gave a TGI (SK-MEL-5 melanoma) of 25.2 µM, a TGI (M14 melanoma) of 5.66 µM and a TGI (RPMI-8226 leukemia) of 28.5 µM. The TGI (UACC-62 melanoma) was 29.9 µM, the TGI (HCC-2998 colon) was 18 µM and the TGI (SR leukemia) was 12.8 µM. The TGI (LOX IMVI melanoma) was 21.4 µM, the TGI (SF-295 CNS) was 17.6 µM and the TGI (HCT-116 colon) was 21.1 µM. It also gave a TGI (SNB-75 CNS) of 42.2 µM, a TGI (UACC-257 melanoma) of 18.7 µM and a TGI (OVCAR-4 ovarian) of 75.8 µM. The TGI (NCI-H522 lung) was 24.1 µM, the TGI (NCI-H460 lung) was 26.4 µM and the TGI (HOP-62 NSCLC) was 18.3 µM. For the same compound, the TGI (MDA-N) was 24.9 µM, the TGI (PC-3 prostate) was 30.8 µM and the TGI (MALME-3M melanoma) was 27.8 µM. It also gave a TGI (MCF7 breast) of 26.1 µM, a TGI (OVCAR-8 ovarian) of 63.5 µM and a TGI (SK-OV-3 ovarian) of 61.7 µM. It also gave a TGI (BT-549 breast) of 38.9 µM, a TGI (HS 578T breast) of 36.1 µM and a TGI (OVCAR-3 ovarian) of 41.2 µM. The TGI (KM12 colon) was 31 µM, the TGI (K-562 leukemia) was > 100 µM and the TGI (HOP-92 NSCLC) was 31.2 µM. The TGI (NCI/ADR-RES ovarian) was 43.9 µM, the TGI (786-0 renal) was 10.8 µM and the TGI (COLO 205 colon) was 20.7 µM. For the same compound, the TGI (SNB-19 CNS) was 30.1 µM, the TGI (HT29 colon) was 11 µM and the TGI (TK-10 renal) was 26.5 µM. The TGI (DU-145 prostate) was 39.5 µM, the TGI (MDA-MB-435) was 27.1 µM and the TGI (EKVX NSCLC) was 49.6 µM. The TGI (SK-MEL-2 melanoma) was 30.9 µM, the TGI (HCT-15 colon) was 26.2 µM and the TGI (MOLT-4 leukemia) was > 100 µM. The TGI (CAKI-1 renal) was > 100 µM, the TGI (MDA-MB-231 breast) was 29.8 µM and the TGI (CCRF-CEM leukemia) was > 100 µM. For the same compound, the TGI (OVCAR-5 ovarian) was 53.6 µM, the TGI (NCI-H23 lung) was 34.2 µM and the TGI (SF-268 CNS) was 41.8 µM. The TGI (SW-620 colon) was 43.6 µM, the TGI (T-47D breast) was 65.8 µM and the TGI (SF-539 CNS) was 28.1 µM. For the same compound, the TGI (HL-60(TB) leukemia) was 41.8 µM, the TGI (SK-MEL-28 melanoma) was 24.2 µM and the TGI (RXF 393 renal) was 19 µM. The TGI (NCI-H226 lung) was 33.7 µM.
With `CC1(c2ccccc2)CCN(C2CC2)CO1` (stereo unspecified) the TGI (A549 NSCLC) was > 100 µM, the TGI (U251 CNS) was > 100 µM and the TGI (UO-31 renal) was 35.8 µM. The TGI (SN12C renal) was 36.6 µM, the TGI (ACHN renal) was 31.7 µM and the TGI (IGROV1 ovarian) was 40.2 µM. For the same compound, the TGI (SK-MEL-5 melanoma) was > 100 µM, the TGI (M14 melanoma) was 31 µM and the TGI (RPMI-8226 leukemia) was > 100 µM. For the same compound, the TGI (UACC-62 melanoma) was 32 µM, the TGI (HCC-2998 colon) was 30.8 µM and the TGI (SR leukemia) was 65.5 µM. For the same compound, the TGI (LOX IMVI melanoma) was 39.9 µM, the TGI (SF-295 CNS) was > 100 µM and the TGI (HCT-116 colon) was 40.9 µM. For the same compound, the TGI (SNB-75 CNS) was > 100 µM, the TGI (UACC-257 melanoma) was 47.8 µM and the TGI (OVCAR-4 ovarian) was 33.9 µM. For the same compound, the TGI (NCI-H460 lung) was 28.1 µM, the TGI (HOP-62 NSCLC) was > 100 µM and the TGI (MDA-N) was 31 µM. The TGI (PC-3 prostate) was > 100 µM, the TGI (MALME-3M melanoma) was 34.4 µM and the TGI (MCF7 breast) was 32 µM. The TGI (OVCAR-8 ovarian) was > 100 µM, the TGI (SK-OV-3 ovarian) was > 100 µM and the TGI (BT-549 breast) was 32.3 µM. It also gave a TGI (HS 578T breast) of 44 µM, a TGI (OVCAR-3 ovarian) of 31.7 µM and a TGI (KM12 colon) of 30.4 µM. For the same compound, the TGI (K-562 leukemia) was > 100 µM, the TGI (NCI/ADR-RES ovarian) was 46.6 µM and the TGI (786-0 renal) was 29.9 µM. For the same compound, the TGI (COLO 205 colon) was 39.8 µM, the TGI (SNB-19 CNS) was > 100 µM and the TGI (HT29 colon) was 35.7 µM. The TGI (TK-10 renal) was 26.7 µM, the TGI (DU-145 prostate) was > 100 µM and the TGI (MDA-MB-435) was > 100 µM. The TGI (EKVX NSCLC) was 41.4 µM, the TGI (SK-MEL-2 melanoma) was > 100 µM and the TGI (HCT-15 colon) was 30.1 µM. For the same compound, the TGI (MOLT-4 leukemia) was 43.5 µM, the TGI (CAKI-1 renal) was 36.5 µM and the TGI (MDA-MB-231 breast) was 38.4 µM. For the same compound, the TGI (CCRF-CEM leukemia) was > 100 µM, the TGI (OVCAR-5 ovarian) was 33.3 µM and the TGI (NCI-H23 lung) was 85.2 µM. The TGI (SF-268 CNS) was 35.4 µM, the TGI (SW-620 colon) was 36.2 µM and the TGI (T-47D breast) was 45.1 µM. For the same compound, the TGI (HL-60(TB) leukemia) was > 100 µM, the TGI (SK-MEL-28 melanoma) was 37.5 µM and the TGI (RXF 393 renal) was 69.3 µM. The TGI (NCI-H226 lung) was > 100 µM.
